Data set [1] can be described thus: Permeability in Caco-2 cells. It counts as in vitro ADME. Particulars: human, Caco-2, pH 6.5, 37° C.; for Papp A→B at 60 min: apical to basolateral, read-out: Permeability A-B (pH 6.5/7.4); for Papp B→A at 40 min: basolateral to apical, read-out: Permeability B-A (pH 6.5/7.4). The protocol: Permeability tests were performed using Caco-2 cells, a colorectal epithelial adenocarcinoma cell line. These cells resemble intestinal epithelial cells in some aspects, such as the formation of a polarized monolayer, a well-defined brush border on the apical surface, and intercellular junctions.
The test is performed in both directions [apical to basolateral (A-B) and basolateral to apical (B-A)] through the cell monolayer, allowing an efflux ratio that provides an indicator as to whether a compound undergoes active efflux. Particle detection was performed with HPLC-MS/MS (mass spectrometry) according to the calculation of the peak area of the result. MS/MS was performed by combining two mass detectors in a single instrument.
A-B permeability was performed at pH 6.5/7.4 with incubation time of 0 and 60 minutes at 37° C. and B-A permeability was performed at pH 6.5/7.4 with incubation time of 0 and 40 minutes at 37° C.
For orientation: Caco-2 cells form a polarised layer with tight junctions and transporters.

A short description of data set [2]: Water solubility (shake-flask, PBS pH 7.4). It counts as physicochemical. Particulars: aqueous buffer, thermodynamic from solid. The protocol: In addition, chromatographic purity (%) was defined as the calculation of the main peak area relative to the calculation of the peak area integrate of the standard HPLC calibration chromatogram. A standard calibration chromatogram was then generated for each compound tested along with a UV/VIS spectrum with maximal labeled absorbance. The shake-flash technique was used with constant stirring during incubation to keep a uniform medium for 24 hours in PBS at pH 7.4.

The test system of data set [3] is human hepatocytes. Briefly: Intrinsic clearance in cryopreserved human hepatocytes. It is filed as in vitro ADME. The procedure: (§1) Cryopreserved hepatocytes from humans, rats (Sprague-Dawley males) and from mice (CD-1 males) were used for incubation at different times (0, 0.5, 1, 1.5, 2 hours) at 37° C. followed by HPLC-MS/MS detection. The aim was to verify the clearance time of the test substance on hepatocytes. The experiment was performed on a 96-well plate and the cryopreserved hepatocytes were thawed and resuspended in Krebs-Heinslet buffer(pH 7.3). The reaction was started by adding each test compound to each cell suspension and performing the incubation at the times indicated above. The reaction was quenched with addition of acetonitrile in the wells and detection by HPLC-MS/MS (mass spectrometry). MS/MS is performed by combining two mass detectors into a single instrument.

The test system of data set [4] is rat hepatocytes (Sprague-Dawley males). Briefly: Intrinsic clearance in cryopreserved rat hepatocytes. It counts as in vitro ADME. The procedure:
as §1

The subject of data set [5] is mouse hepatocytes (CD-1 males). Briefly: Intrinsic clearance in cryopreserved mouse hepatocytes. It is filed as in vitro ADME. The procedure:
as §1

Data set [6] concerns the target CYP2B6 (Homo sapiens (Human), UniProt P20813). Briefly: CYP inhibition, fluorogenic substrate. Particulars: recombinant CYP2B6, pH 7.4. It is filed as in vitro ADME. More on the design: dose or concentration left out as unconfirmed. The text has this: (§2) The CYP inhibition test used fluorogenic substrates specific to each CYP to check for inhibition thereof by detection of the expected metabolite using a fluorimetric method. Recombinant CYPs (CYP2B6, CYP2C8, […], CYP2C19, CYP2D6, CYP3A4) from specific humans for each cytochrome family, subfamily and polypeptide were used. The following were used as substrates: CEC (3-Cyano-7-Ethoxycoumarin) which forms as metabolite CHC (3-Cyano-7-Hydroxycoumarin); EFC (7-Ethoxy-4-trifluoromethyl coumarin), forming the metabolite HFC (7-Hydroxytri fluoromethylcoumarin); DBF (Dibenzylfluorescein) and its respective fluorescein metabolite; MFC (7-Methoxy-4-trifluoromethylcoumarin) which forms the metabolite HFC (7-Hydroxytrifluoromethylcoumarin); BFC (7-Benzyloxy-Trifluoromethylcoumarin) and its metabolite HFC; and BzRes (benzyloxyresorufin) to form resofurine. The detection of the metabolite was done with a fluorimetric method: analytical technique to identify and characterize the amount of substance by excitation using a beam of ultraviolet light and measurement of the emitted fluorescence. For detection, a 96-well plate was used. Each sample was tested in two wells (n=2) as standard condition. At least 04 wells were separated for vehicle (control). Compounds were tested at a concentration […], standard for this assay. They were preincubated with a NADPH generator system in a phosphate buffer (pH 7.4) for 5 minutes at 37° C. The reaction was started by adding the specific CYP enzymes, substrate and bovine serum albumin (BSA<0.4 mg/ml). Incubations were performed between 20-50 minutes at 37° C. according to the specific parameter of each fluorogenic substrate, for the evaluated component. Fluorescence at each well was detected before and after the incubation period.

The target of data set [7] is CYP2C19 (Homo sapiens (Human), UniProt P33261). The data set can be described thus: CYP inhibition, fluorogenic substrate. It is filed as in vitro ADME. More on the design: dose or concentration left out as unconfirmed. The note with it: recombinant CYP2C19, pH 7.4.
CYP2C19, sequence (P33261 whole entry): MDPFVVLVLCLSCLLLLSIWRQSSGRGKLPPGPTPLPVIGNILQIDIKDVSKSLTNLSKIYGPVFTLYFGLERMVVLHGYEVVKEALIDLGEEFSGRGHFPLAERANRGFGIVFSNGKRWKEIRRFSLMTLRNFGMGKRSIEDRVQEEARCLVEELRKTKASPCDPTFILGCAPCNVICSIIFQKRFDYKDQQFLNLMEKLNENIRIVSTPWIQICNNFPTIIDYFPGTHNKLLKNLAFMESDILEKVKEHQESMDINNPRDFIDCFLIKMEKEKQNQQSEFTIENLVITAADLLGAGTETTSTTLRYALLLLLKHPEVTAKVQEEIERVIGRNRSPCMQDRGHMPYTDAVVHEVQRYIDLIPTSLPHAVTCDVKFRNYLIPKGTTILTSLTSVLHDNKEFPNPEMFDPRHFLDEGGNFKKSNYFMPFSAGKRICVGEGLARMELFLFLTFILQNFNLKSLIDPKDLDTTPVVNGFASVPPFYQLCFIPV
Text: as §2

For data set [8], the target named is CYP2C8 (Homo sapiens (Human), UniProt P10632). Briefly: CYP inhibition, fluorogenic substrate. It counts as in vitro ADME. More on the design: dose or concentration left out as unconfirmed. Particulars: recombinant CYP2C8, pH 7.4.
CYP2C8, sequence (P10632 whole entry): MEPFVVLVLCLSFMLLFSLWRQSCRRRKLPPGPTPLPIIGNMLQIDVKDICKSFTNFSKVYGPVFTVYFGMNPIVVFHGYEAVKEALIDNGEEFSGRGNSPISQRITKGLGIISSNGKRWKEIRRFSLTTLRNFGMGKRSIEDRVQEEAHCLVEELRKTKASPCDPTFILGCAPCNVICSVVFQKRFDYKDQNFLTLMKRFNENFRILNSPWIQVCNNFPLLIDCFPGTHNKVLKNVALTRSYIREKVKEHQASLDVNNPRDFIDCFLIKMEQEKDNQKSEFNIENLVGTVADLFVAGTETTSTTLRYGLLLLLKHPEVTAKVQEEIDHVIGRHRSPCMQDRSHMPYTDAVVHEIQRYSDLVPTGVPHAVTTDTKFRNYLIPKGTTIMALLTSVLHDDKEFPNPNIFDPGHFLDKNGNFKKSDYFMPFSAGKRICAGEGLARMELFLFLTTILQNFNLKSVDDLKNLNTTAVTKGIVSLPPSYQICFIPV
Text: as §2

Data set [9] concerns the target CYP2C9 (Homo sapiens (Human), UniProt P11712). Briefly: CYP inhibition, fluorogenic substrate. It counts as in vitro ADME. The note with it: recombinant CYP2C9, pH 7.4. More on the design: dose or concentration left out as unconfirmed.
Text: as §2

Data set [10] deals with CYP2D6 (Homo sapiens (Human), UniProt P10635). The data set can be described thus: CYP inhibition, fluorogenic substrate. It is filed as in vitro ADME. More on the design: dose or concentration left out as unconfirmed. The note with it: recombinant CYP2D6, pH 7.4.
CYP2D6, sequence (P10635 whole entry): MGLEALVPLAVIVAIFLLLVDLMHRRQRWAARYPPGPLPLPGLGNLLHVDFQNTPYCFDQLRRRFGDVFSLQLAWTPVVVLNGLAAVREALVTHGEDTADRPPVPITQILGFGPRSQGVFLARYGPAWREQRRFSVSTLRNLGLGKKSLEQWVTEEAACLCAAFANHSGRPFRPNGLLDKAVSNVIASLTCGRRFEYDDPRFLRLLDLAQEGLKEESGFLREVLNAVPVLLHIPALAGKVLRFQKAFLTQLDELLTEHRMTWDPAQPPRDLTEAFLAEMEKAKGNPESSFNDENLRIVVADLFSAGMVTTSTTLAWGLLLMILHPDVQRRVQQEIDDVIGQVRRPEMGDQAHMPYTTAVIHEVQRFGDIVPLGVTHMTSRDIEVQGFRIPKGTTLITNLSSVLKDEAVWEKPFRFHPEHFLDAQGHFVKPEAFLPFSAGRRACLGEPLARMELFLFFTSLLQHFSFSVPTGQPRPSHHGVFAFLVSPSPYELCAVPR
Text: as §2

The target in data set [11] is CYP1A2 (Homo sapiens (Human), UniProt P05177). The data set can be described thus: CYP inhibition, fluorogenic substrate. It is filed as in vitro ADME. More on the design: inhibition: dose or concentration left out as unconfirmed. Particulars: human, recombinant CYP1A2, pH 7.4.
CYP1A2, sequence (P05177 whole entry): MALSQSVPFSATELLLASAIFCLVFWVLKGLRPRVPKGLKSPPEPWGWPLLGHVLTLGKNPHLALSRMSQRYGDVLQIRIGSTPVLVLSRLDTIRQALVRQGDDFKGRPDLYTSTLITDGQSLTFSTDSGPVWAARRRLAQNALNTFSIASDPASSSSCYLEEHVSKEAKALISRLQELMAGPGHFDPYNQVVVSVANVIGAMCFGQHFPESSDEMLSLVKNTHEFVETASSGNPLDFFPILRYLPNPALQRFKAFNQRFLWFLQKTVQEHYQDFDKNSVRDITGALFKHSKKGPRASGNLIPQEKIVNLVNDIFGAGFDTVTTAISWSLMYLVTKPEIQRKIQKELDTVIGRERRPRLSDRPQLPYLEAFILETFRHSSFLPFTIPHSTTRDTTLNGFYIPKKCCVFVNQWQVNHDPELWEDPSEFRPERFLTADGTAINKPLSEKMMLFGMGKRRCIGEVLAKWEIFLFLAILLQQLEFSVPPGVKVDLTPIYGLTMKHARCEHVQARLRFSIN
Text: as §2

A short description of data set [12]: Pharmacokinetics (PK) in rat, I.V. and oral. It counts as in vivo, Wistar-Han rats. Particulars: oral 10 mg/kg; for AUC(0-t): Wistar-Han, plasma. The procedure:
[…] The study lasted for 2 weeks (including acclimation time and study), in which the route of administration was made by injection into the caudal vein and oral gavage. The treatment was carried out in a single dose: I.V. group with dose of 1 mg/kg and Oral group with dose of 10 mg/kg. […] Clinical observations were made twice a day (morning and afternoon) in the pre-dose at the 08 time points defined in the protocol. Blood collection was performed after euthanasia in the pre-dose animals at 08 defined time points and at 24 hours post-dose. The pharmacokinetic analysis parameters detected for Group IV were: half-life (t½), drug concentration at time zero (C0), last measurable plasma concentration (AUClast), area under the plasma concentration curve extrapolation percentage (AUC % ext), area under the plasma concentration curve extrapolation to infinity (AUCinf), volume of distribution (Vz), steady state volume of distribution (Vss), clearance (CL) and mean residence time (MRT). The parameters evaluated for the Oral group were: bioavailability (F %), maximum concentration reached (Cmax), time to reach maximum plasma concentration (Tmax), last measurable plasma concentration (AUClast), area under the plasma concentration curve extrapolation percentage (AUC % ext), area under the plasma concentration curve extrapolation to infinity (AUCinf), area under the plasma concentration curve extrapolation to infinity versus dose (AUCinf/Dose), half-Life (t½), and mean residence time (MRT).

The conditions of data set [13]: oral, estimated, from literature; cited from earlier work.
The conditions of data set [14]: conjugate acid, J. Org. Chem. 1961; cited from earlier work.
Data set [15] deals with melatonin receptors. The note with it: Depreux et al. 1994; cited from earlier work.

The structures appear in SMILES notation. In brackets after ≈: the same amount, converted by molar mass.

The solubility is the concentration that dissolves in the medium under given conditions. For orientation: inhibition means the change of the read-out against control, counted positive when it falls. The term AUC(0-t) denotes the area under the concentration-time curve up to a stated or last time point.

CYP2C9, sequence (P11712 whole entry): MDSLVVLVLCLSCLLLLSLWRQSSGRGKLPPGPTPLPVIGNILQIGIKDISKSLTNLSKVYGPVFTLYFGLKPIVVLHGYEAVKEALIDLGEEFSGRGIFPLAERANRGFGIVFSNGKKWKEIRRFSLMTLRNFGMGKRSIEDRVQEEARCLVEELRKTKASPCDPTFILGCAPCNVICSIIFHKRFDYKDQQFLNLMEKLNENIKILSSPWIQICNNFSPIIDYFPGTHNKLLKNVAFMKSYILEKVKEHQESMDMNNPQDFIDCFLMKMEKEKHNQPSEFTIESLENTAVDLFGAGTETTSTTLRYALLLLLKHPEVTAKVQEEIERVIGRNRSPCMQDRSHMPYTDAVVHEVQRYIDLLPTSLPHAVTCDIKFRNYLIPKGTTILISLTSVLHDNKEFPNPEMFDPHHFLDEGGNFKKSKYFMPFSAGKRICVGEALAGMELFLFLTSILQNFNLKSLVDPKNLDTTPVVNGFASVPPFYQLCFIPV
CYP2B6, sequence (P20813 whole entry): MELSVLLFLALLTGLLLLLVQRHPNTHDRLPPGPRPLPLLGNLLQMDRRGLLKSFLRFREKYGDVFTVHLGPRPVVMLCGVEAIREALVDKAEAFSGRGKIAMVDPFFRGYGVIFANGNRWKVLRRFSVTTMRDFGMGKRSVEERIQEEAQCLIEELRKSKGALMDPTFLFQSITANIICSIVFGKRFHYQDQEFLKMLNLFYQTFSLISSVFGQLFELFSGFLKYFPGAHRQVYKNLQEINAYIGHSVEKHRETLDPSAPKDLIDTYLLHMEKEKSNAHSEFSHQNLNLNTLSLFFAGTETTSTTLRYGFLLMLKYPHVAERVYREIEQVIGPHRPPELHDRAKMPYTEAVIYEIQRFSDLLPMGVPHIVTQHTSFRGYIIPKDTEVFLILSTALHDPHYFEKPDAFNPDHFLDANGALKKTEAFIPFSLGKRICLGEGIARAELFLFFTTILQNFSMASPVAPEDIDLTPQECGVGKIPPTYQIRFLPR

For the compound `CCOc1nc2cc(Cl)c(OC)cc2n1CCCNC(C)=O` [IA2-142], the Papp A→B at 60 min in [1] amounted to 34 ×10⁻⁶ cm/s. Besides, the Papp B→A at 40 min in data set [1] came to 57.8 ×10⁻⁶ cm/s. This compound showed a solubility at 24 h in data set [2] of 181 µM (≈ 58.9 µg/mL). Further, in data set [3], the “Intrinsic clearance half-life, Human” value was >2 h. Besides, the “Intrinsic clearance half-life, Rat Sprague-Dawley” value in data set [4] is >2 h. Besides, in data set [5], the “Intrinsic clearance half-life, Mouse CD-1” value was >2 h. For the same compound, the inhibition in data set [6] is 0.5%; in [7], 27.7%; in data set [8], -4.7%; in [9], 13%; in data set [10], 6.9%.

Regarding `COc1ccc2nc(OC)n(CCCNC(C)=O)c2c1` [IA2-140], the Papp A→B at 60 min in data set [1] came out at 27.3 ×10⁻⁶ cm/s. In addition, the Papp B→A at 40 min in data set [1] was 55.1 ×10⁻⁶ cm/s. Further, in data set [2], the concentration in solution (solubility at 24 h) was 197 µM (≈ 54.7 µg/mL). The “Intrinsic clearance half-life, Human” value in data set [3] was >2 h. Moreover, in data set [4], the “Intrinsic clearance half-life, Rat Sprague-Dawley” value is >2 h. In addition, in data set [5], the “Intrinsic clearance half-life, Mouse CD-1” value is >2 h. Besides, the inhibition in data set [11] is -0.7%; in [6] it was 0.4%; in [7] it was 7.2%; in data set [8] it was -2.2%; in data set [9] it was 2.6%; in [10], 0.3%. Also, in [12], the AUC(0-t) was 2440 ng·h/mL.

`CCC(=O)NCC[C@@H]1CCc2ccc3c(c21)CCO3` [ramelteon]: the absolute bioavailability in [13] was 1.8%.

For `CCOc1nc2cc(Cl)c(OC)cc2n1CCNC(C)=O` [IA2-121], the Papp A→B at 60 min in [1] amounted to 58.2 ×10⁻⁶ cm/s. In data set [1], the Papp B→A at 40 min stood at 32.1 ×10⁻⁶ cm/s. In [2], the solubility at 24 h worked out at 200 µM (≈ 62.4 µg/mL). The “Intrinsic clearance half-life, Human” value in data set [3] is >2 h. Further, the “Intrinsic clearance half-life, Rat Sprague-Dawley” value in data set [4] worked out at 0.867 h. In addition, in data set [5], the “Intrinsic clearance half-life, Mouse CD-1” value is >2 h. Moreover, the inhibition in [6] was determined as 8.4%; in [7] it was 33.8%; in [8], 7%; in data set [9] it was 23.7%; in data set [10], 0.9%.

Regarding `COc1cc2c(cc1Cl)nc(OC)n2CCNC(C)=O` [IA2-143], the Papp A→B at 60 min in data set [1] stood at 21.3 ×10⁻⁶ cm/s. The Papp B→A at 40 min in data set [1] was found to be 71.8 ×10⁻⁶ cm/s. The amount in solution in data set [2] (solubility at 24 h) came to 197 µM (≈ 58.6 µg/mL). For the same compound, the “Intrinsic clearance half-life, Rat Sprague-Dawley” value in data set [4] was found to be 1.8 h. In addition, the inhibition in data set [11] was 1.4%; in data set [6] it was -1.1%; in data set [7], 10%; in data set [8] it was -13%; in [9], -9.6%; in data set [10] it was 0.8%. Further, the AUC(0-t) in [12] was determined as 4050 ng·h/mL. The same compound showed an AUClast in data set [12] of 4049 ng·h/mL.

For the compound `CCOc1nc2ccc(OC)cc2n1CCCNC(C)=O` [IA2-120], the Papp A→B at 60 min in [1] came out at 32.1 ×10⁻⁶ cm/s. Moreover, the Papp B→A at 40 min in data set [1] came to 29.5 ×10⁻⁶ cm/s. The compound further came in with a solubility at 24 h in data set [2] of 200 µM (≈ 58.3 µg/mL). Moreover, in data set [3], the “Intrinsic clearance half-life, Human” value was >2 h. Moreover, the “Intrinsic clearance half-life, Rat Sprague-Dawley” value in data set [4] came to 0.883 h. Moreover, the “Intrinsic clearance half-life, Mouse CD-1” value in [5] was >2 h. Further, the inhibition in data set [6] was 7.9%; in data set [7], 6.4%; in data set [8], 9.1%; in [9] it was 26.7%; in data set [10], -0.3%.

For the compound `c1ccc2[nH]cnc2c1` [unsubstituted benzimidazole, benzimidazole], the pKa result in data set [14] is recorded as “above 6”.

As to `COc1ccc2ncn(CCNC(C)=O)c2c1` [N-[2-(6-methoxybenzimidazol-1-yl)-ethyl]acetamide], in [15], the “affinity, times lower than melatonin affinity” value was “approximately 3,200 times”.
